What was measured:
Assay type in all cases: in vivo
avocados [1] = test: Skin color on day 8, Example 3; set-up: key: 1: full green; 2: green with traces of brown; 3: half green and half brown; 4: brown with traces of green; 5: purple-black; conditions: 1000 ppb MCP
Procedure: (§1) Avocado skin color was rated using the following scale: • 1=full green • 2=green with traces of brown • 3=half green and half brown • 4=brown with traces of green • 5=purple-black
Avocados were harvested in Mexico and shipped to Pennsylvania, USA. 48 fruits were tested. When the fruits reached pulp firmness of 71 N (16 lbf), half of the fruits were exposed to atmosphere having 1000 ppb of MCP at 21.1° C. for 12 hours and half were not. Immediately after treatment, fruits were placed in MAP bags. The number of fruits per bag was either 1, 2, 3, 4, or 10. Two MCP-treated fruits were left out of any MAP, and two fruits not exposed to MCP were also left out of any MAP. All fruits were then stored at 21° C. (70° F.). On the eighth day after exposure to atmosphere containing MCP, fruits were tested with the following results. The results shown are the averages for all the fruits tested in each category.
Avocados were harvested and shipped as in Example 2. Treatment was performed when pulp thinness reached 98 N (22 lbf). 50 fruits were tested. Otherwise the treatment and handling was the same as in Example 2. Results (average of all fruits tested in each category) were as follows: […]

avocados [2] = test: RipeLock applications, Example 7; conditions: FIG. 5, firmness
Text: Avocados are harvested, handled, and tested as in previous examples. Control samples have no bag and no SmartFresh (1-methylcyclopropene or 1-MCP) application. SmartFresh samples have no bags hut with 600 ppb SmartFresh (1-methylcyclopropene or 1-MCP) application. MAP samples use the 31b MAP bags but no SmartFresh (1-methylcyclopropene or 1-MCP) application. RipeLock 300 samples have the 31b MAP bags with 300 ppb SmartFresh (1-methylcyclopropene or 1-MCP) application. RipeLock 600 samples have the 31b MAP bags with 600 ppb SmartFresh (1-methylcyclopropene or 1-MCP) application. RipeLock 900 samples have the 31b MAP bags with 900 ppb SmartFresh (1-methylcyclopropene or 1-MCP) application. Average fruit in each sample is about 3.81b.
Oxygen (O2) concentrations of samples tested are shown in FIG. 1, and carbon dioxide (CO2) concentrations of samples tested are shown in FIG. 2.

avocados [3] = test: Skin color rating of avocados, Example 1 (California); set-up: key: 1 = full green, 3 = half green/half brown, 5 = purple-black
Text: as §1
(§2) Avocados were harvested in Oxnard, Calif., USA and packed in cardboard boxes and shipped to Sacramento, Calif, USA. After 2 days of transportation part of the avocados were packed in MAP bags. The appropriate weight of avocados was placed in each bag after harvest and shipment. Bags were placed in RPC (Recycle Plastic Container) carrying devices. Avocados then were stored at room temperature (22° C.).
(§3) The Test Protocol that was used was as follows. 60 MAP bags were packed. Each hag held approximately 1.7 kg (3.8 lb) of avocados. Three such bags were packed in each RPC. Total weight of avocados in MAP bags was approximately 102 kg. Approximately 51 kg of avocados were placed into RPC identical to those used for the MAP bags. The MAP-packaged avocados were packaged as follows: Nine fruits, approximately 1.7 kg (3.8 lb) were carefully placed into MAP bags, and the bags were sealed by twisting the open side of the bag, folding down the twisted end, and placing a rubber band around the twisted and folded end of the bag.
(§4) Avocados were harvested with a very high firmness (not possible to measure with FTA Machines (Firmness Texture Analyzer)). The FTA higher limit was 156 N (351 bf). To monitor the ripening process of the avocados, extra fruits were bagged in MAP bags and the firmness was monitored every day, twice a day until the fruits achieve an average firmness of 111 N (25 lbf). All avocados were kept at room temperature (22° C.) until achieving an average firmness of 111 N (251 bf).
(§5) After achieving an average firmness of 111 N (25 lbf) the avocados were randomly divided into treatment sets as follows:
(§6) On the same day the avocados achieved 111 N (25 lbf) of average firmness, each treatment set was marked, placed in a hermetical chamber at room temperature (22° C.). All chambers were of equal size and packed the same way. Treatment was for 12 hr. In the chambers for the 3 “MCP” treatment groups, at the beginning of the treatment period, SmartFresh™ SmartTabs™ tablets (AgroFresh, Inc.) were placed in the chamber. The amount of SmartFresh™ SmartTabs™ tablets was chosen to achieve the indicated concentration of 1-methylcyclopropene in the atmosphere of the chamber. The SmartTabs™ tablets were contacted with water in the normal way to release 1-MCP.
(§7) After the treatment in the chambers, the RPCs were moved into racks at room temperature for storage and observation. Avocados remained in the same bags throughout the packing, treatment in the chamber, and subsequent storage. Evaluation for skin color and pulp firmness was as follows. Day “zero” was the day the avocados were removed from the chamber and placed in storage. Each test result was the average of 12 fruits.

avocados [4] = test: Pulp firmness by penetrometer, Example 1 (California)
Procedure: (§8) As used herein, the “pulp firmness” of an avocado is measured using a penetrometer (Fruit Test™ FT40 penetrometer, from Wagner Instruments) having a plunger diameter of 8 mm Performing the test for pulp firmness destroys the avocado that is tested. When avocados are said herein to be treated in a certain way (e.g., harvested, shipped, exposed to a cyclopropene compound, etc.) when they have a certain specified pulp firmness, it is meant that, out of a group of avocados that have been harvested and treated as uniformly as reasonably possible, a sample of a relatively small number of avocados is removed and tested for pulp firmness. The large group of avocados is considered to have the pulp firmness that is the average value of the tests performed on the relatively small sample.
(§9) Pulp firmness was evaluated by peeling open 4 cm^2 of the avocado's peel using a fruit peeler provided with the penetrometer. The penetrometer was mounted on a manual stand with a lever to deliver unifoim force throughout the test. The avocado was placed with the peeled surface beneath the penetrometer tip with probe diameter of 8 mm, and the force required to punch through the pulp was measured. Each fruit was tested in 3 places.
as §2, §3, §4, §5, §6, §7

avocados [5] = test: Skin color rating, ethylene-treated fruit, Example 6; set-up: key to Skin Color ratings: 1 = full green to 5 = purple-black; conditions: for Skin Color ratings: ethylene-treated, 900 ppb MCP
Text: as §1
(§10) Avocados were harvested, handled, and tested as in Example 1. Fruits were placed into MAP bags or else into “Poly bags” (plastic bags having more than 10 holes per bag, with each hole larger than 1 cm in diameter).
(§11) Three fruits (approximately 1.8 kg of fruit) were placed in each bag. After placement into bags, fruit was exposed to ethylene (200 ppm for 24 hours at 22° C.). Then, the fruit was exposed to 1-MCP (900 ppb for 15 hours at 22° C.).

avocados [6] = test: Pulp firmness, ethylene-treated fruit, Example 6; conditions: for Pulp Firmness Difference from the Control Sample: ethylene-treated, 900 ppb MCP, control Poly bag, 0 MCP
Procedure: as §8, §9, §10, §11

avocados [7] = test: Additional RipeLock applications, Example 8; conditions: seven days at 22° C.
Text: Avocados are harvested, handled, and tested as in previous examples. Control samples have no bag and no SmartFresh (1-methylcyclopropene or 1-MCP) application. SmartFresh samples have no bags but with 500 ppb SmartFresh (1-methylcyclopropene or 1-MCP) application. MAP samples use the 31b MAP bags but no SmartFresh (1-methylcyclopropene or 1-MCP) application. RipeLock samples have the 3 lb MAP bags with various concentrations of SmartFresh (1-methylcyclopropene or 1-MCP) applications, including 10 ppb, 50 ppb, 100 ppb, 500 ppb, 1500 ppb, 3000 ppb, and 4500 ppb. Average fruit in each sample is about 3.8 lb. Ethylene is treated after packing at 200 ppm for twenty-four hours. Evaluations are performed seven days at 22° C. after SmartFresh (1-methylcyclopropene or 1-MCP) applications.
Data of pulp firmness of avocado tested are shown in FIG. 6 (with ethylene) and FIG. 7 (without ethylene).

CC1=CC1 [MCP, 1-methylcyclopropene]
Skin Color on Day 8, Color Rating (avocados [1]; MAP bag): 4.2
Skin Color on Day 8, Color Rating (avocados [1]; no bag): 5
combined effect of MAP bags and SmartFresh application (avocados [2]): synergistic effect
Skin Color ratings (avocados [3]; MAP bag, 300 ppb MCP, day 0): 1.7
Skin Color ratings (avocados [3]; MAP bag, 300 ppb MCP, day 1): 2.9
Skin Color ratings (avocados [3]; MAP bag, 300 ppb MCP, day 2): 2.3
Skin Color ratings (avocados [3]; MAP bag, 300 ppb MCP, day 3): 2.8
Skin Color ratings (avocados [3]; MAP bag, 300 ppb MCP, day 4): 2.3
Skin Color ratings (avocados [3]; MAP bag, 600 ppb MCP, day 0): 1.7
Skin Color ratings (avocados [3]; MAP bag, 600 ppb MCP, day 1): 2.3
Skin Color ratings (avocados [3]; MAP bag, 600 ppb MCP, day 2): 2.3
Skin Color ratings (avocados [3]; MAP bag, 600 ppb MCP, day 3): 2.2
Skin Color ratings (avocados [3]; MAP bag, 600 ppb MCP, day 4): 2.1
Skin Color ratings (avocados [3]; MAP bag, 900 ppb MCP, day 0): 1.6
Skin Color ratings (avocados [3]; MAP bag, 900 ppb MCP, day 1): 2.3
Skin Color ratings (avocados [3]; MAP bag, 900 ppb MCP, day 2): 2.3
Skin Color ratings (avocados [3]; MAP bag, 900 ppb MCP, day 3): 2.3
Skin Color ratings (avocados [3]; MAP bag, 900 ppb MCP, day 4): 2.4
Skin Color ratings (avocados [3]; No Bag, 600 ppb MCP, day 0): 2.6
Skin Color ratings (avocados [3]; No Bag, 600 ppb MCP, day 1): 3.0
Skin Color ratings (avocados [3]; No Bag, 600 ppb MCP, day 2): 2.8
Skin Color ratings (avocados [3]; No Bag, 600 ppb MCP, day 3): 3.8
Skin Color ratings (avocados [3]; No Bag, 600 ppb MCP, day 4): 3.4
Pulp Firmness - Difference from Untreated Control (avocados [4]; MAP bag, 300 ppb MCP, day 0): 90 Ns
Pulp Firmness - Difference from Untreated Control (avocados [4]; MAP bag, 300 ppb MCP, day 1): 22 Ns
Pulp Firmness - Difference from Untreated Control (avocados [4]; MAP bag, 300 ppb MCP, day 2): 36 Ns
Pulp Firmness - Difference from Untreated Control (avocados [4]; MAP bag, 300 ppb MCP, day 3): 41.3 Ns
Pulp Firmness - Difference from Untreated Control (avocados [4]; MAP bag, 300 ppb MCP, day 4): 33 Ns
Pulp Firmness - Difference from Untreated Control (avocados [4]; MAP bag, 600 ppb MCP, day 0): 84 Ns
Pulp Firmness - Difference from Untreated Control (avocados [4]; MAP bag, 600 ppb MCP, day 1): 46 Ns
Pulp Firmness - Difference from Untreated Control (avocados [4]; MAP bag, 600 ppb MCP, day 2): 39 Ns
Pulp Firmness - Difference from Untreated Control (avocados [4]; MAP bag, 600 ppb MCP, day 3): 59.3 Ns
Pulp Firmness - Difference from Untreated Control (avocados [4]; MAP bag, 600 ppb MCP, day 4): 40 Ns
Pulp Firmness - Difference from Untreated Control (avocados [4]; MAP bag, 900 ppb MCP, day 0): 93 Ns
Pulp Firmness - Difference from Untreated Control (avocados [4]; MAP bag, 900 ppb MCP, day 1): 61 Ns
Pulp Firmness - Difference from Untreated Control (avocados [4]; MAP bag, 900 ppb MCP, day 2): 52 Ns
Pulp Firmness - Difference from Untreated Control (avocados [4]; MAP bag, 900 ppb MCP, day 3): 49.3 Ns
Pulp Firmness - Difference from Untreated Control (avocados [4]; MAP bag, 900 ppb MCP, day 4): 46 Ns
improvement over the untreated control (pulp firmness) (avocados [4]; MCP alone at 600 ppb, day 3): 4 lbf
Pulp Firmness - Difference from Untreated Control (avocados [4]; No Bag, 600 ppb MCP, day 0): 29 Ns
Pulp Firmness - Difference from Untreated Control (avocados [4]; No Bag, 600 ppb MCP, day 1): 14 Ns
Pulp Firmness - Difference from Untreated Control (avocados [4]; No Bag, 600 ppb MCP, day 2): 10 Ns
Pulp Firmness - Difference from Untreated Control (avocados [4]; No Bag, 600 ppb MCP, day 3): 17.3 Ns
Pulp Firmness - Difference from Untreated Control (avocados [4]; No Bag, 600 ppb MCP, day 4): 12 Ns
skin color compared with other treatments (avocados [5]; MAP bags and 900 ppb of 1-MCP, days 1, 2, and 3): best skin color
Skin Color ratings (avocados [5]; MAP bag, day 0): 2.1
Skin Color ratings (avocados [5]; MAP bag, day 1): 3.0
Skin Color ratings (avocados [5]; MAP bag, day 2): 3.3
Skin Color ratings (avocados [5]; MAP bag, day 3): 3.4
Skin Color ratings (avocados [5]; MAP bag, day 4): 4.4
Skin Color ratings (avocados [5]; Poly bag, day 0): 4.1
Skin Color ratings (avocados [5]; Poly bag, day 1): 4.9
Skin Color ratings (avocados [5]; Poly bag, day 2): 4.8
Skin Color ratings (avocados [5]; Poly bag, day 3): 4.8
Skin Color ratings (avocados [5]; Poly bag, day 4): 4.9
effect of combining MAP bag and 1-MCP on pulp firmness (avocados [6]; MAP bags and 900 ppb 1-MCP, days 1-4): synergistic benefit to pulp firmness
pulp firmness compared with other treatments (avocados [6]; MAP bags and 900 ppb of 1-MCP, days 1-4): best pulp firmness
Pulp Firmness Difference from the Control Sample (avocados [6]; MAP bag, day 0): 13.8 Ns
Pulp Firmness Difference from the Control Sample (avocados [6]; MAP bag, day 1): 30.4 Ns
Pulp Firmness Difference from the Control Sample (avocados [6]; MAP bag, day 2): 14.6 Ns
Pulp Firmness Difference from the Control Sample (avocados [6]; MAP bag, day 3): 21.4 Ns
Pulp Firmness Difference from the Control Sample (avocados [6]; MAP bag, day 4): 14.8 Ns
Pulp Firmness Difference from the Control Sample (avocados [6]; Poly bag, day 0): 0.1 Ns
Pulp Firmness Difference from the Control Sample (avocados [6]; Poly bag, day 1): 1.1 Ns
Pulp Firmness Difference from the Control Sample (avocados [6]; Poly bag, day 2): 0.6 Ns
Pulp Firmness Difference from the Control Sample (avocados [6]; Poly bag, day 3): 1.4 Ns
Pulp Firmness Difference from the Control Sample (avocados [6]; Poly bag, day 4): 0.1 Ns
firmness and skin color by application rate (avocados [7]; rate of 1500 ppb in MAP bags): best result for both firmness and skin color
combined effect of MAP bags and SmartFresh applications (avocados [7]; rates equal or higher than 500 ppb): synergistic effect

— patent US20190254299A1, “METHODS OF HANDLING AVOCADOS AND SYSTEM” (AGROFRESH INC., priority 2012, published 2019)
